From ChEMBL document CHEMBL4270595, “Design, synthesis, antiproliferative activity, molecular docking and cell cycle analysis of some novel (morpholinosulfonyl) isatins with potential EGFR inhibitory activity” (Eur J Med Chem, 2018)
Blank lines part the entries; values can stand above or below the compound they belong to. The source made the active and inactive calls. The rule behind the calls is not given here.

Experiments:
[1] = system: HepG2; assay: Cytotoxicity against human HepG2 cells after 24 hrs by SRB assay; assay type: functional, cell-based; details: HepG2, 24 h
[2] = Inhibition of recombinant human FGFR preincubated for 5 mins followed by ATP addition and measured after 30 mind by HTRF assay
[3] = system: WI-38; assay: Cytotoxicity against human WI38 cells after 24 hrs by SRB assay; assay type: cell-based; details: WI-38, 24 h
[4] = biological target: Vascular endothelial growth factor receptor (Homo sapiens, UniProt P17948+P35916+P35968); assay type: cell-based; details: sf9
Description: Inhibition of GST-tagged recombinant human VEGFR (789-end) expressed in baculovirus infected Sf9 insect cells preincubated for 5 mins followed by ATP addition and measured after 30 mins by HTRF assay

[5] = system: HepG2; assay: Induction of apoptosis in human HepG2 cells assessed as necrotic cells at 10 uM after 24 hrs by Annexin V-FITC/ propidium iodide staining-based flow cytometric analysis (reference value: 1.28%); assay type: functional
[6] = system: HCT-116; assay: Cytotoxicity against human HCT116 cells after 24 hrs by SRB assay; assay type: functional, cell-based; details: HCT-116, 24 h
[7] = biological target: T1, Epidermal growth factor receptor (Homo sapiens, UniProt P00533); assay: Inhibition of EGFR in human HepG2 cells assessed as suppression of ERK phosphorylation up to 2 uM after 8 hrs by Western blot analysis; assay type: cell-based
[8] = biological target: Receptor tyrosine-protein kinase erbB-2 (Homo sapiens, UniProt P04626); assay: Inhibition of recombinant human GST-tagged HER2 (676-end) expressed in baculovirus infected Sf9 insect cells preincubated for 5 mins followed by ATP addition and measured after 30 mins by HTRF assay
[9] = Cytotoxicity against human Caco cells after 24 hrs by SRB assay; assay type: functional, cell-based
[10] = biological target: Epidermal growth factor receptor (Homo sapiens, UniProt P00533, T790M); assay: biochemical; assay type: cell-based, Sf21
[11] = biological target: T1, Epidermal growth factor receptor; assay: Inhibition of EGFR in human HepG2 cells assessed as suppression of EGFR phosphorylation after 8 hrs by Western blot analysis; assay type: cell-based
[12] = system: MCF7; assay: Cytotoxicity against human MCF7 cells after 24 hrs by SRB assay; assay type: functional, cell-based; details: MCF7, 24 h
[13] = biological target: T1, Epidermal growth factor receptor; assay: Inhibition of EGFR in human HepG2 cells; assay type: cell-based
[14] = system: HepG2; assay: Cell cycle arrest in human HepG2 cells assessed as accumulation of cells at G0/G1 phase at 10 uM after 24 hrs by flow cytometric analysis (reference value: 52.31%); assay type: functional
[15] = system: HepG2; assay: Cell cycle arrest in human HepG2 cells assessed as accumulation of cells at S phase at 10 uM after 24 hrs by flow cytometric analysis (reference value: 31.31%); assay type: functional
[16] = biological target: Epidermal growth factor receptor (Homo sapiens, UniProt P00533, L858R); assay: Inhibition of recombinant human EGFR L858R mutant expressed in baculovirus infected insect cells preincubated for 5 mins followed by ATP addition and measured after 30 mins by HTRF assay; assay type: cell-based
[17] = system: HepG2; assay: Induction of apoptosis in human HepG2 cells assessed as late apoptotic cells at 10 uM after 24 hrs by Annexin V-FITC/ propidium iodide staining-based flow cytometric analysis (reference value: […]); assay type: functional
[18] = system: HepG2; assay: Induction of apoptosis in human HepG2 cells assessed as early apoptotic cells at 10 uM after 24 hrs by Annexin V-FITC/ propidium iodide staining-based flow cytometric analysis (reference value: 0.51%); assay type: functional
[19] = system: HepG2; assay: Induction of apoptosis in human HepG2 cells assessed as viable cells at 10 uM after 24 hrs by Annexin V-FITC/ propidium iodide staining-based flow cytometric analysis (reference value: 96.09%); assay type: functional; details: HepG2, 24 h, read-out: Activity
[20] = system: HepG2; assay: Cell cycle arrest in human HepG2 cells assessed as accumulation of cells at G2/M phase at 10 uM after 24 hrs by flow cytometric analysis (reference value: 16.38%); assay type: functional
[21] = system: HepG2; assay: Cell cycle arrest in human HepG2 cells assessed as accumulation of cells at pre-G1 phase at 10 uM after 24 hrs by flow cytometric analysis (reference value: 2.04%); assay type: functional

T1 sequence (P00533 whole entry): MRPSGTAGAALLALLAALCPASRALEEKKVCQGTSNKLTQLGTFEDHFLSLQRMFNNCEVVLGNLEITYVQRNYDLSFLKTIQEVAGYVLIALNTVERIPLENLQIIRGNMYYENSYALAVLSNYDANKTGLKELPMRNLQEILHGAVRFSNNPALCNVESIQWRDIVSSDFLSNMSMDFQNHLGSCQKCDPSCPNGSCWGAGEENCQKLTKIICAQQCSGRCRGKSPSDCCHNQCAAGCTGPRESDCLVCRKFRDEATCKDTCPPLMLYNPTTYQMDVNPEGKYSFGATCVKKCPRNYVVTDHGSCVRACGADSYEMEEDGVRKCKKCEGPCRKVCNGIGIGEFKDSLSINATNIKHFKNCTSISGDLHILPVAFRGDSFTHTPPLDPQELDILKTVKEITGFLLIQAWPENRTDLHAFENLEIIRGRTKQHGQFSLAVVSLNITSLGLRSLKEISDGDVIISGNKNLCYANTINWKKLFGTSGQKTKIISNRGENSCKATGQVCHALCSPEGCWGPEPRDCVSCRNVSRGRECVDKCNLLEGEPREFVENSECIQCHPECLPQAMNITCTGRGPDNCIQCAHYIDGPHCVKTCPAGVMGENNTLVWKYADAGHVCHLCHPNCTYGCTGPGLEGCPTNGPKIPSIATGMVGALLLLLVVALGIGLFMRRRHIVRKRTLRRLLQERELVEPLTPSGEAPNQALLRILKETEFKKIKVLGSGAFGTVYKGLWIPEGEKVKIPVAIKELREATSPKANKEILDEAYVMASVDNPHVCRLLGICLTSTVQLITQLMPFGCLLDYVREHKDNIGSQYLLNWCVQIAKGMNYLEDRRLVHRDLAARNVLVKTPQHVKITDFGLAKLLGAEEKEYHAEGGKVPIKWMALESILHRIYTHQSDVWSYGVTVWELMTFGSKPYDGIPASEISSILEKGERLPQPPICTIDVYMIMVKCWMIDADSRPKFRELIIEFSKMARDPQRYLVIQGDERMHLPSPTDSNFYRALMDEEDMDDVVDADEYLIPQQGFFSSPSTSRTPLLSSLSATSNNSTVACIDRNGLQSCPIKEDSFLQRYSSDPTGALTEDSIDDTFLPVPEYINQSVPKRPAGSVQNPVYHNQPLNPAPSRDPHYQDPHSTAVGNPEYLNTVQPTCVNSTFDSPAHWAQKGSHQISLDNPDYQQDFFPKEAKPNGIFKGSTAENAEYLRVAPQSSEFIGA
Sequence of Epidermal growth factor receptor (Homo sapiens, UniProt P00533, L858R) (P00533 25-1210 L858R limits assumed): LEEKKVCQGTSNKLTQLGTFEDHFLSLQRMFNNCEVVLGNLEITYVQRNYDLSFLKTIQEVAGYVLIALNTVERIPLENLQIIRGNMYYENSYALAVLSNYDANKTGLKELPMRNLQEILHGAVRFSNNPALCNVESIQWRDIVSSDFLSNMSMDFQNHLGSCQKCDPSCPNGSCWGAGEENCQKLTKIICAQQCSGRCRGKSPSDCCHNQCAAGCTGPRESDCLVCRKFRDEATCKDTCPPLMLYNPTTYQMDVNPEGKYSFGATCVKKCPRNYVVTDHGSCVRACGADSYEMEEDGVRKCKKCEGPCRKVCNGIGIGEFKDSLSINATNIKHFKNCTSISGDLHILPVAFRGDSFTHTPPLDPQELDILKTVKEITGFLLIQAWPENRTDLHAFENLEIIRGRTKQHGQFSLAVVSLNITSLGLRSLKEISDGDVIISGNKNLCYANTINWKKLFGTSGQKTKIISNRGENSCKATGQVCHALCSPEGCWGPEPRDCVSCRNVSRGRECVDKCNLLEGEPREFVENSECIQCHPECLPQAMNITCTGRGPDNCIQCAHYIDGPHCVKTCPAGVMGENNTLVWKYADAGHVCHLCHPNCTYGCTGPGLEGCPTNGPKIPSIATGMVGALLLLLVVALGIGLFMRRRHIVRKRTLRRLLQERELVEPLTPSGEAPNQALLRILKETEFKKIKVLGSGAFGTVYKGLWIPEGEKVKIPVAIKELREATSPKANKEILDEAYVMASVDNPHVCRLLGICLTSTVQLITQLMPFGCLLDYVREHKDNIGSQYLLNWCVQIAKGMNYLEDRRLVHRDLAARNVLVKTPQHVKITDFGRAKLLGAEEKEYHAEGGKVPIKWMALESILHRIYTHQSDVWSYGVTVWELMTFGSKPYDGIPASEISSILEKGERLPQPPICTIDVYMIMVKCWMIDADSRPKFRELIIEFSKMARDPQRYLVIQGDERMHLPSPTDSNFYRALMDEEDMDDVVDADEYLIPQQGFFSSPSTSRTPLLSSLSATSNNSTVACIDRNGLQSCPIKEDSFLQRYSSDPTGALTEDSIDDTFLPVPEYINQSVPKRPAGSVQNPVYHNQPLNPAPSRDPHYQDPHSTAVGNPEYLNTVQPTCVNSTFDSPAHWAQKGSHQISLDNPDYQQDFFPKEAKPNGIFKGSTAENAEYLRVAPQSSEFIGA
Sequence of Receptor tyrosine-protein kinase erbB-2 (P04626 whole entry): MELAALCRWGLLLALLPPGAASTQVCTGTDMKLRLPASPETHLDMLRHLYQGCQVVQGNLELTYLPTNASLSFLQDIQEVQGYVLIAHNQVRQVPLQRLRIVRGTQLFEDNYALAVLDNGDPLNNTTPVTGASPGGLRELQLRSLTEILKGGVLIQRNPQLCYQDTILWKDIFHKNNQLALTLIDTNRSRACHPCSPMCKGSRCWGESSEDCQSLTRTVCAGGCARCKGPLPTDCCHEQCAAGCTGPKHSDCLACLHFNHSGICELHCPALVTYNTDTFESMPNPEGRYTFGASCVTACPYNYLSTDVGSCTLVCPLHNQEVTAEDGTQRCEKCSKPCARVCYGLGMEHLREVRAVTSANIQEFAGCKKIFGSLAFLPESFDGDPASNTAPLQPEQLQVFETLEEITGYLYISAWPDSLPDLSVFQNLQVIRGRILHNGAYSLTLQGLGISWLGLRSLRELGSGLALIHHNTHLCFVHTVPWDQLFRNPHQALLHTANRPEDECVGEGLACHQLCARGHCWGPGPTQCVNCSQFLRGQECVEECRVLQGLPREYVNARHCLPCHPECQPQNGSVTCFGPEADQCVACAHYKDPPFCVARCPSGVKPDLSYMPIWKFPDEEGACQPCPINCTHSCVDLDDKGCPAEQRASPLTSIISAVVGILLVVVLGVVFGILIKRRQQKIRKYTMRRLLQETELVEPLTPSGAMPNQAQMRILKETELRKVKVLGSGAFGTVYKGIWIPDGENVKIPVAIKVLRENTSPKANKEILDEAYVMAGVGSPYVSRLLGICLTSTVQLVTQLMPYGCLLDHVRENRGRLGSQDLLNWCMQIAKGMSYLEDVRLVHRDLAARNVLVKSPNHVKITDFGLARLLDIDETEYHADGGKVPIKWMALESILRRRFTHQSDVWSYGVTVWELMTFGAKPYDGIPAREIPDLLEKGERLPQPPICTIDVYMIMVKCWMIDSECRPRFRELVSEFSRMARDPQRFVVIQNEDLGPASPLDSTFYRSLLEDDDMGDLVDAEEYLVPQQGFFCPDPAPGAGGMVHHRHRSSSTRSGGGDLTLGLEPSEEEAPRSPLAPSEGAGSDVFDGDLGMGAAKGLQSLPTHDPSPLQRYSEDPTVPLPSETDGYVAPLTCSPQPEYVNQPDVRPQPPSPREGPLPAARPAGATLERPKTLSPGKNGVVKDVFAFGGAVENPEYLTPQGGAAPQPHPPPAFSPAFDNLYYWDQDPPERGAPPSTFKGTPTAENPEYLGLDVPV
Sequence of Epidermal growth factor receptor (Homo sapiens, UniProt P00533, T790M) (P00533 25-1210 T790M limits assumed): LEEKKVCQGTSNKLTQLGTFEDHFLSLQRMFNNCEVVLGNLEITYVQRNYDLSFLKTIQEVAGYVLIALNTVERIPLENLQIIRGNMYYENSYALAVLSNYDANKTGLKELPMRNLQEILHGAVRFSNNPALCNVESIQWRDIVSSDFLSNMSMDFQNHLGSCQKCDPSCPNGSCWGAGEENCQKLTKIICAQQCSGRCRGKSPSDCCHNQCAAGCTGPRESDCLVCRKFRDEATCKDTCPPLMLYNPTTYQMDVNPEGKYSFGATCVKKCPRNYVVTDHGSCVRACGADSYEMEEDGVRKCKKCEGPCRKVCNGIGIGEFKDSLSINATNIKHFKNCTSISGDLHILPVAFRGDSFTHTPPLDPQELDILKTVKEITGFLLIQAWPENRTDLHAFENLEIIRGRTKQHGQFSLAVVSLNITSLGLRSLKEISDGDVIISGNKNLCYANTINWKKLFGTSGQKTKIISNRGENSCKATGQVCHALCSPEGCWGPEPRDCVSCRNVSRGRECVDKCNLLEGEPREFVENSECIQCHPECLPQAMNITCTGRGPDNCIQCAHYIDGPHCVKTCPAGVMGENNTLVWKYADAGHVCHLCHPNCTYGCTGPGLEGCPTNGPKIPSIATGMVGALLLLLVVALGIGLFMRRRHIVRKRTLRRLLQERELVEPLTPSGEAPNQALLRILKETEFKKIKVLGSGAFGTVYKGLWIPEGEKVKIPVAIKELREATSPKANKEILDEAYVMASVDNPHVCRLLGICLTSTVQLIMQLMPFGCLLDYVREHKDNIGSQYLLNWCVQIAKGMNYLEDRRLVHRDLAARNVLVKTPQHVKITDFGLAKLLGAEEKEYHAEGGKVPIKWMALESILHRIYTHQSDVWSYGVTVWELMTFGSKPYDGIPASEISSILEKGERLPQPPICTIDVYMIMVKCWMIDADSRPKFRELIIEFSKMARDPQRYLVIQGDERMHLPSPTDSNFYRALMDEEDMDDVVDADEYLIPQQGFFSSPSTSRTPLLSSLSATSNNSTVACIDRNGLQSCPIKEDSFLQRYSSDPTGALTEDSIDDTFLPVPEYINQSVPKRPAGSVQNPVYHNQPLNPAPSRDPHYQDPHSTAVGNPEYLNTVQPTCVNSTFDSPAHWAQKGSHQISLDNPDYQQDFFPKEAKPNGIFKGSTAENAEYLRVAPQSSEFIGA

Compound: N#CCC(=O)N/N=C1\C(=O)Nc2ccc(S(=O)(=O)N3CCOCC3)cc21
IC50 [1]: 7.53 µM
IC50 [2]: 0.378 µM
IC50 [3]: 302 µM
IC50 [4]: 0.276 µM
Activity [5]: 3.41%
IC50 [6]: 10.3 µM
inhibition [7]: Active
IC50 [8]: 0.24 µM
IC50 [9]: 9.66 µM
IC50 [10]: 0.137 µM
inhibition [11]: Dose-dependent effect
IC50 [12]: 27.7 µM
IC50 [13]: 0.023 µM
Activity [14]: 40.31%
Activity [15]: 15.58%
IC50 [16]: 0.0338 µM
Activity [17]: 7.51%
Activity [18]: 3.17%
viability at 10 µM [19]: 83.6%
Activity [20]: 44.11%
Activity [21]: 14.09%

Compound: O=S(=O)(c1ccc2[nH]c3nc4ccccc4nc3c2c1)N1CCOCC1
IC50 [1]: 27.2 µM
IC50 [3]: 418 µM
IC50 [6]: 19.2 µM
IC50 [9]: 18.9 µM
IC50 [12]: 40.8 µM

Compound: O=C1Nc2ccc(S(=O)(=O)N3CCOCC3)cc2/C1=N/NS(=O)(=O)c1ccccc1
IC50 [1]: 23.9 µM
IC50 [3]: 302 µM
IC50 [6]: 13.3 µM
IC50 [9]: 16.4 µM
IC50 [12]: 25.3 µM

Compound: O=C1Nc2ccc(S(=O)(=O)N3CCOCC3)cc2/C1=N/NC(=O)c1ccccc1
IC50 [1]: 18.1 µM
IC50 [3]: 295 µM
IC50 [6]: 28.9 µM
IC50 [9]: 36.2 µM
IC50 [12]: 414 µM

IC50 [13]: 0.046 µM
Compound: O=C1Nc2ccc(S(=O)(=O)N3CCOCC3)cc2/C1=N/Nc1ccccc1
IC50 [1]: 15.6 µM
IC50 [3]: 262 µM
Activity [5]: 2.69%
IC50 [6]: 10.5 µM
IC50 [9]: 20 µM
IC50 [12]: 30.3 µM
Activity [14]: 38.92%
Activity [15]: 14.77%
Activity [17]: 9.49%
Activity [18]: 4.28%
viability at 10 µM [19]: 81.4%
Activity [20]: 48.31%
Activity [21]: 16.46%

Compound: N/N=C1\C(=O)Nc2ccc(S(=O)(=O)N3CCOCC3)cc21
IC50 [1]: 32.4 µM
IC50 [3]: 391 µM
IC50 [6]: 36.3 µM
IC50 [9]: 49.6 µM
IC50 [12]: 46.8 µM

IC50 [13]: 0.205 µM
Compound: N=c1oc2ccccc2cc1C(=O)N/N=C1\C(=O)Nc2ccc(S(=O)(=O)N3CCOCC3)cc21
IC50 [1]: 7.82 µM
IC50 [3]: 132 µM
IC50 [6]: 6.75 µM
IC50 [9]: 8.21 µM
IC50 [12]: 20.8 µM

IC50 [13]: 0.751 µM
Compound: O=C1Nc2ccc(S(=O)(=O)N3CCOCC3)cc2/C1=N/c1ccc(O)cc1
IC50 [1]: 10.4 µM
IC50 [3]: 259 µM
IC50 [6]: 27.3 µM
IC50 [9]: 17.8 µM
IC50 [12]: 52.7 µM

Compound: O=C1Nc2ccc(S(=O)(=O)N3CCOCC3)cc2/C1=N/c1ccc(Br)cc1
IC50 [1]: 11.9 µM
IC50 [3]: 372 µM
IC50 [6]: 15.3 µM
IC50 [9]: 29.4 µM
IC50 [12]: 44.8 µM

Compound: Cc1ccc(S(=O)(=O)N/N=C2\C(=O)Nc3ccc(S(=O)(=O)N4CCOCC4)cc32)cc1
IC50 [1]: 24.7 µM
IC50 [3]: 261 µM
IC50 [6]: 23.4 µM
IC50 [9]: 14.6 µM
IC50 [12]: 38.4 µM

Compound: CC(=O)N/N=C1\C(=O)Nc2ccc(S(=O)(=O)N3CCOCC3)cc21
IC50 [1]: 27.5 µM
IC50 [3]: 325 µM
IC50 [6]: 29 µM
IC50 [9]: 18.4 µM
IC50 [12]: 56 µM

Compound: CS(=O)(=O)CCNCc1ccc(-c2ccc3ncnc(Nc4ccc(OCc5cccc(F)c5)c(Cl)c4)c3c2)o1 [LAPATINIB]
IC50 [1]: 11.7 µM
IC50 [6]: 5.92 µM
IC50 [9]: 12.1 µM
IC50 [12]: 5.02 µM

Compound: COc1cccc2c1C(=O)c1c(O)c3c(c(O)c1C2=O)C[C@@](O)(C(=O)CO)C[C@@H]3O[C@H]1C[C@H](N)[C@H](O)[C@H](C)O1 [DOXORUBICIN]
IC50 [1]: 7.46 µM
IC50 [6]: 8.29 µM
IC50 [9]: 5.91 µM

Compound: O=C1Nc2ccc(S(=O)(=O)N3CCOCC3)cc2/C1=N/c1ccc(Cl)cc1
IC50 [1]: 11.8 µM
IC50 [3]: 468 µM
IC50 [6]: 24.3 µM
IC50 [9]: 23.7 µM
IC50 [12]: 44.3 µM

IC50 [13]: 1.93 µM
Compound: COc1ccc(-c2c(C#N)c(N)n(/N=C3\C(=O)Nc4ccc(S(=O)(=O)N5CCOCC5)cc43)c(=O)c2C#N)cc1
IC50 [1]: 15 µM
IC50 [3]: 224 µM
IC50 [6]: 18.1 µM
IC50 [9]: 10.3 µM
IC50 [12]: 33.4 µM

Compound: Cc1ccc(/N=C2\C(=O)Nc3ccc(S(=O)(=O)N4CCOCC4)cc32)cc1
IC50 [1]: 12.8 µM
IC50 [3]: 309 µM
IC50 [6]: 18.9 µM
IC50 [9]: 33 µM
IC50 [12]: 55.9 µM

Compound: O=C1Nc2ccc(S(=O)(=O)N3CCOCC3)cc2/C1=N/c1ccc(C(=O)O)cc1
IC50 [1]: 23.1 µM
IC50 [3]: 313 µM
IC50 [6]: 23.6 µM
IC50 [9]: 25.7 µM
IC50 [12]: 26.7 µM

Compound: O=C1Nc2ccc(S(=O)(=O)N3CCOCC3)cc2C1=O
IC50 [1]: 28.6 µM
IC50 [3]: 588 µM
IC50 [6]: 60 µM
IC50 [9]: 45.6 µM
IC50 [12]: 67.9 µM

Compound: CC(=O)c1cccc(/N=C2\C(=O)Nc3ccc(S(=O)(=O)N4CCOCC4)cc32)c1
IC50 [1]: 28.6 µM
IC50 [3]: 177 µM
IC50 [6]: 29 µM
IC50 [9]: 21.4 µM
IC50 [12]: 39.2 µM

Compound: COC(=O)c1ccccc1/N=C1\C(=O)Nc2ccc(S(=O)(=O)N3CCOCC3)cc21
IC50 [1]: 14 µM
IC50 [3]: 228 µM
IC50 [6]: 18.7 µM
IC50 [9]: 23.5 µM
IC50 [12]: 31.4 µM

Compound: O=C1Nc2ccc(S(=O)(=O)N3CCOCC3)cc2/C1=N/c1cccc(C(F)(F)F)c1
IC50 [1]: 14.3 µM
IC50 [3]: 226 µM
IC50 [6]: 15.9 µM
IC50 [9]: 21.2 µM
IC50 [12]: 41.1 µM

IC50 [2]: 0.03 µM
Compound: C#Cc1cccc(Nc2ncnc3cc(OCCOC)c(OCCOC)cc23)c1 [ERLOTINIB]

IC50 [13]: 0.108 µM
Compound: COc1ccc(C2=C(C#N)C3=NC4=Nc5ccc(S(=O)(=O)N6CCOCC6)cc5C4=NC3C(O)=C2C#N)cc1 (stereo not drawn)
IC50 [1]: 7.3 µM
IC50 [3]: 324 µM
IC50 [6]: 9.73 µM
IC50 [9]: 7.24 µM
IC50 [12]: 11.9 µM

IC50 [13]: 1.18 µM
Compound: O=C1Nc2ccc(S(=O)(=O)N3CCOCC3)cc2/C1=N/c1ccc(/N=C2\C(=O)Nc3ccc(S(=O)(=O)N4CCOCC4)cc32)cc1
IC50 [1]: 8.84 µM
IC50 [3]: 203 µM
IC50 [6]: 7.48 µM
IC50 [9]: 9.16 µM
IC50 [12]: 10.9 µM
